Measurements: patent US8946215B2, “Hydroxy-substituted imidazo[1,2-a]pyridinecarboxamides and their use” (Bayer Pharma Aktiengesellschaft, priority 2012, dated 2015)

Assays:
[1] = target: T1, recombinant guanylate cyclase reporter cell line (Rattus norvegicus, UniProt P19686+P20595); assay: Action on recombinant guanylate cyclase reporter cell line; format: cell-based; details: in some cases mean values obtained from individual determinations
T1 construct: expressed in transfected cells
T1 sequence (P20595 1-619): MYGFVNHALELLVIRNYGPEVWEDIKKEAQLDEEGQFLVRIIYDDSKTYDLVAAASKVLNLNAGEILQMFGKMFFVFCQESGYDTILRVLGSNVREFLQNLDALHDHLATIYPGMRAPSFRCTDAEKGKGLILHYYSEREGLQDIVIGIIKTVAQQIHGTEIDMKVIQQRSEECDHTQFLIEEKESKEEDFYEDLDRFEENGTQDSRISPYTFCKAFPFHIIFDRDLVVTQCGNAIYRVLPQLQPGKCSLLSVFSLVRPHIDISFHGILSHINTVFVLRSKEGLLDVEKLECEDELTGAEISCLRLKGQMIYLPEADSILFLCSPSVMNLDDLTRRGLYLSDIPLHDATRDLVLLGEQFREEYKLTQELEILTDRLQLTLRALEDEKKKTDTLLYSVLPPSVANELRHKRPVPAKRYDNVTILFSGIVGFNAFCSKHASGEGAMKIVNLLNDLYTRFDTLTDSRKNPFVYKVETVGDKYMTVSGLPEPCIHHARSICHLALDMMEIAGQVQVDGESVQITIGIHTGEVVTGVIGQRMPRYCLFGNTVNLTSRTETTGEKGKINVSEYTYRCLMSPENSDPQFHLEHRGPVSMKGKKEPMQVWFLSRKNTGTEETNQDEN
T1 sequence (P19686 1-690): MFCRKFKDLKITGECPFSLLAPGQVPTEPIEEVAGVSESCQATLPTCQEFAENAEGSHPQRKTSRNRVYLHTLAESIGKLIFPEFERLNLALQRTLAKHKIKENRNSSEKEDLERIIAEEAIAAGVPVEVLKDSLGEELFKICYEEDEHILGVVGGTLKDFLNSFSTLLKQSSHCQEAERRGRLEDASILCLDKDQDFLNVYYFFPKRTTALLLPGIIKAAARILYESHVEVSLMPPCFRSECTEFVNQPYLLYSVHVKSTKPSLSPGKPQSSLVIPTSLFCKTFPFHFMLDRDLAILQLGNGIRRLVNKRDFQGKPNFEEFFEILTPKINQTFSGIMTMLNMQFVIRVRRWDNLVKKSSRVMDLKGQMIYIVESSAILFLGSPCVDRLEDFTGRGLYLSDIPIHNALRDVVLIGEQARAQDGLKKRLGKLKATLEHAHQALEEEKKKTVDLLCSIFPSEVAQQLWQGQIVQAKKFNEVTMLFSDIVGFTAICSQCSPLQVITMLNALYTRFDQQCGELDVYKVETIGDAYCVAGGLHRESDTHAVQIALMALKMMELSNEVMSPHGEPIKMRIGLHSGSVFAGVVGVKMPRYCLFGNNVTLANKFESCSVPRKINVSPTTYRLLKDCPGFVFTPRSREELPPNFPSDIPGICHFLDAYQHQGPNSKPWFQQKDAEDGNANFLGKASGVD
Summary of the method: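 Cell-based reporter assay with recombinant guanylate cyclase expressed in a reporter cell line, per a published method. Activity reported as minimal effective concentration (MEC), in some cases as the mean of individual determinations.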

[2] = Determination of pharmacokinetic parameters following intravenous and oral administration (rats); format: in vivo, male Wistar rats; details: following intravenous and peroral administration; for MRT / half-life: male, Wistar, rat, plasma; for MRT: read-out: MRT (Mean Residence Time); for half-life: read-out: t½ (terminal half life) (converted)
Description: B-6. Determination of Pharmacokinetic Parameters Following Intravenous and Oral Administration
The pharmacokinetic parameters of the compounds according to the invention are determined in male CD-1 mice, male Wistar rats and female beagles. Intravenous administration in the case of mice and rats is carried out by means of a species-specific plasma/DMSO formulation, and in the case of dogs by means of a water/PEG400/ethanol formulation. In all species, oral administration of the dissolved substance is performed via gavage, based on a water/PEG400/ethanol formulation.
The taking of blood from rats is simplified by inserting a silicone catheter into the right Vena jugularis externa prior to substance administration. The operation is carried out at least one day prior to the experiment with […] and administration of an analgesic (atropin/Rimadyl (3/1) 0.1 ml s.c.). The blood is taken (generally more than 10 time points) within a time window including terminal time points of at least 24 to a maximum of 72 hours after substance administration. When the blood is taken, it is passed into heparinised tubes. Then the blood plasma is obtained by centrifugation and is optionally stored at −20° C. until further processing.
An internal standard (which may also be a chemically unrelated substance) is added to the samples of the compounds according to the invention, calibration samples and qualifiers, and there follows protein precipitation by means of excess acetonitrile. Addition of a buffer solution matched to the LC conditions, and subsequent vortexing, is followed by centrifugation at 1000 g. The supernatant is analysed by LC-MS/MS using C18 reversed-phase columns and variable mobile phase mixtures.
The substances are quantified via the peak heights or areas from extracted ion chromatograms of specific selected ion monitoring experiments.
The plasma concentration/time plots determined are used to calculate the pharmacokinetic parameters such as AUC, Cmax, t1/2 (terminal half life), F (Bioavailability), MRT (Mean Residence Time) and CL (Clearance), using a validated pharmacokinetic calculation programme.
Since the substance quantification is carried out in plasma, it is necessary to determine the blood/plasma distribution of the substance in order to be able to adjust the pharmacokinetic parameters correspondingly. For this purpose, a defined amount of substance is incubated in heparinised whole blood of the species in question in a rocking roller mixer for 20 min. After centrifugation at 1000 g, the plasma concentration is measured (by means of LC-MS/MS; see above) and determined by calculating the ratio of the Cblood/Cplasma value.

MEC (minimal effective concentration) [1] [µM] | AUCnorm [2] [kg·h/L] | CLblood [2] [mL/min/kg] | MRT [2] [h] | half-life [2] [h] | SMILES
0.3 | 2.5 | 9.33 | 3.3 | 3.4 | Cc1cc(OCc2ncccc2F)c2nc(C)c(C(=O)NC(CCCC(F)(F)F)C(C)(C)O)n2c1 (single isomer, unassigned; ent-8) [Example 181, ent-8-[(3-fluoropyridin-2-yl)methoxy]-2,6-dimethyl-N-(7,7,7-trifluoro-2-hydroxy-2-methylheptan-3-yl)imidazo[1,2-a]pyridine-3-carboxamide (enantiomer B)]
1 | 2.0 | 11.8 | 4 | 4.6 | Cc1cc(OCc2ncccc2F)c2nc(C)c(C(=O)NC(CCC(F)(F)C(F)(F)F)C(C)(C)O)n2c1 (single isomer, unassigned; ent-8) [Example 187, ent-8-[(3-fluoropyridin-2-yl)methoxy]-2,6-dimethyl-N-(6,6,7,7,7-pentafluor-2-hydroxy-2-methylheptan-3-yl)imidazo[1,2-a]pyridine-3-carboxamide (enantiomer B)]
